Active and inactive are the calls of the source. Cut-off read from the data, not from the text of the source, for most assays here: actives have a measured EC50 and inactives only a lower limit.
Legend:
[1] = target: T1, Cytochrome P450 1A2 (Homo sapiens, UniProt P05177);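 note: PubChem cytochrome P450 panel assay, CYP1A2 panel member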
T1 sequence (P05177 whole entry): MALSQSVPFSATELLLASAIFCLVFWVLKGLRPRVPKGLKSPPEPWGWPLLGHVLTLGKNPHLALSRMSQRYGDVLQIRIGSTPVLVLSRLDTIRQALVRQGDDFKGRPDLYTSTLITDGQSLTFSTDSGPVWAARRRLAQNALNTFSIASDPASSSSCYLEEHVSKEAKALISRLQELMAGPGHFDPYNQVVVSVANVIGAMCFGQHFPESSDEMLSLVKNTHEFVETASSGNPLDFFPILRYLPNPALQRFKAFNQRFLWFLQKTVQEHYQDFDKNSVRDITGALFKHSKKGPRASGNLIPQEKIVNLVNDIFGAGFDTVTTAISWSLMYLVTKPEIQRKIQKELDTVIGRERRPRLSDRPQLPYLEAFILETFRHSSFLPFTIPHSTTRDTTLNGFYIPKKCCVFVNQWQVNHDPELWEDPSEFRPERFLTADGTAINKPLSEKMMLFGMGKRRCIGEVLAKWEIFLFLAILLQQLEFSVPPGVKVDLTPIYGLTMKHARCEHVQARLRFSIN

[2] = target: Cytochrome P450 2D6 (Homo sapiens, UniProt P10635);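 note: CYP2D6 member of a cytochrome P450 panel assay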
[3] = alpha-synuclein stem-loop luciferase translation blockers – H4 neuroglioma cells, luminescence, confirmation (AID 1988); format: functional, cell-based
[4] = Luminescence Cell-Based Dose Response HTS to Identify Inhibitors of 5'UTR Stem-Loop Driven Prion Protein mRNA Translation in H4 Neuroglioblastoma Cells. [Related pubchem assays: 1827 (Project Summary), 1813 (Primary HTS)]; format: functional
[5] = luciferase reporter signal suppression in cells – H4 neuroglioma cells, luminescence, dose response (AID 1990); format: functional, cell-based
[6] = NIH3T3 cell viability loss – ATP luminescence, mouse fibroblasts, counter-screen, dose response (AID 2010); format: functional, cell-based;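 note: cells exposed to compound for about 90 hours before reading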
[7] = Trypanosoma cruzi growth suppression in host cells – NIH3T3 host cells, beta-gal luminescence, confirmation (AID 2044); format: functional, cell-based;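 note: intracellular parasites grown in NIH/3T3 mouse fibroblasts as host cells; luminescent beta-galactosidase reporter signal from transgenic T. cruzi replicating inside host cells; inhibitors lower the luminescence signal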
[8] = tested on: INS1; test: INS-1E survival protection against cytokine death – cell-based, luminescence, retest, dose response (AID 449756); format: functional; details: Rattus norvegicus;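 note: cell death triggered by IL-1 beta plus TNF-alpha plus IFN-gamma mixture; protective hits raise ATP signal compared with cytokine alone wells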
[9] = tested on: Streptococcus sp. 'group A'; test: Streptococcus pyogenes SK(-)GAS viability under kanamycin – luminescence, BacTiterGlo, confirmation, counter-screen for streptokinase expression inhibitor project, dose response (AID 1900); format: functional, organism-based
[10] = tested on: Streptococcus; test: GAS UMAA2166 growth inhibition – luminescence, BacTiterGlo, counter-screen for streptokinase expression inhibitor project, dose response (AID 1915); format: functional, organism-based;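 note: potency for reduction of bacterial viability or growth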
[11] = target: T2, Streptokinase A (Streptococcus pyogenes serotype M1, UniProt P10520); test: viability-normalized secreted streptokinase activity reduction – plasminogen activation absorbance, OD405, dose response (AID 1914); format: functional, Streptococcus pyogenes M1 GAS;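 note: secreted streptokinase activity via plasminogen activation per viability signal from cell pellet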
T2 sequence (P10520 whole entry): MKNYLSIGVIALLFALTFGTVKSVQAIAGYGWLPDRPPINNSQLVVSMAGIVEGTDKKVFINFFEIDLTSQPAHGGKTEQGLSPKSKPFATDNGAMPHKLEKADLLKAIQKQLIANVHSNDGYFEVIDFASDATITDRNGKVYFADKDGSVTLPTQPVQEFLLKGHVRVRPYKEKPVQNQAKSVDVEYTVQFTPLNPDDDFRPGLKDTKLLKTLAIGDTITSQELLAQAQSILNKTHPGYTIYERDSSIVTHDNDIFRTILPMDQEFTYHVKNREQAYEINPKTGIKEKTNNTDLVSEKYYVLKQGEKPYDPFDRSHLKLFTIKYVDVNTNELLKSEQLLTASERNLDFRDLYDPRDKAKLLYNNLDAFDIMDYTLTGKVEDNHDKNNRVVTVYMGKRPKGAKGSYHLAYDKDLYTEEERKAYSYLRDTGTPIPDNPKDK

[12] = target: T3, Heat shock factor protein 1 (Mus musculus, UniProt P38532); test: enhancement of HSF1-driven luciferase signal – cell-based, NIH3T3, luminescence, dose retest, confirmation (AID 435004); format: functional;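 note: stress induced by proteasome inhibitor MG132 added 30 min after compound; luciferase reporter driven by HSF1 response element in NIH3T3 cells; actives raise luminescence as potentiators of the MG132 stress response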
T3 sequence (P38532 whole entry): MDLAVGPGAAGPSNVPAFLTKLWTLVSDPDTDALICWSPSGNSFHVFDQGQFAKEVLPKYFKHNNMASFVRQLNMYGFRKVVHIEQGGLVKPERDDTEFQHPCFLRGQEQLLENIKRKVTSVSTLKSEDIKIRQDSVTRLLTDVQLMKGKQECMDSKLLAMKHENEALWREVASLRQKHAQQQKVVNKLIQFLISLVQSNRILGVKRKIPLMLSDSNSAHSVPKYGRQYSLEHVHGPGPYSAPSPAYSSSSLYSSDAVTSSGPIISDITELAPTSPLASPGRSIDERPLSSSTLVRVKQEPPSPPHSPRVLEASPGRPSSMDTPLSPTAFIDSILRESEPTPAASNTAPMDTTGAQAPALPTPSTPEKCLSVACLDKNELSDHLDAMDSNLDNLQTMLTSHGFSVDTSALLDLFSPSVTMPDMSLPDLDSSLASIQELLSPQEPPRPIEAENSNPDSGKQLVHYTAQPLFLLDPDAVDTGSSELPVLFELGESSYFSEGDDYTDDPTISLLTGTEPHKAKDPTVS

Sequence of Cytochrome P450 2D6 (P10635 whole entry): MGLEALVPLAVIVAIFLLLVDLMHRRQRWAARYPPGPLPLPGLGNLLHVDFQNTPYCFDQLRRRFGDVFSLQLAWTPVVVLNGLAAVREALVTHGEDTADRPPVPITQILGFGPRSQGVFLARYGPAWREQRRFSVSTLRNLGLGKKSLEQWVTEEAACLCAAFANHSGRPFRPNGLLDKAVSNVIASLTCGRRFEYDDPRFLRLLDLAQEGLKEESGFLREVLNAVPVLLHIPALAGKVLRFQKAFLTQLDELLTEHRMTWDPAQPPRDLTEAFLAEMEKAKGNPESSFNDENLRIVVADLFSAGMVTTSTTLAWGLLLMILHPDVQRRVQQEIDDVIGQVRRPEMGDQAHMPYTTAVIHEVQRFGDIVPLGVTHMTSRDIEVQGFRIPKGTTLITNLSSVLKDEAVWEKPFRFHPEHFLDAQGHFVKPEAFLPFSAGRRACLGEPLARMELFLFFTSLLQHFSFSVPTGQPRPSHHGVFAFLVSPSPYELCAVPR

| Compound | AC50 [1] | EC50 [3] | EC50 [4] | EC50 [5] | further results |
| --- | --- | --- | --- | --- | --- |
| Cc1ccc(Oc2nnc(-c3ccccc3)cc2C#N)cc1 | 2.51 µM (inconclusive) | – | – | – | – |
| O=C(NCCCN1CCN(C2CCCCC2)CC1)Nc1ccccc1C(F)(F)F | 25.1 µM (inconclusive) | – | – | – | – |
| CCNc1ncc2nc(-c3ccc(F)cc3)c(=O)n(CCC#N)c2n1 | 0.631 µM (inconclusive) | – | – | – | AC50 [2]: 0.1 µM (inconclusive) |
| COc1ccc(-c2noc(CSc3nnc(CCc4ccccc4)n3-c3ccccc3)n2)cc1OC | – | > 120 µM (not active) | 14.5 µM (active) | 14 µM (active) | – |
| CCN(CC)c1ccc(NC(=O)COc2ccc(C#N)cc2)cc1S(=O)(=O)Nc1ccc(OC)cc1 | – | 92.7 µM (active) | > 120 µM (not active) | 20.6 µM (active) | – |
| Nc1sc(-c2ccccc2)n[n+]1Cc1cccc2cccnc12 | – | > 120 µM (not active) | > 120 µM (not active) | > 120 µM (not active) | EC50 [6]: > 60 µM (not active); EC50 [7]: 2.77 µM (active) |
| CC(=O)c1c(O)c(C)c(-c2ccccc2)n(-c2ccccc2)c1=O | 6.31 µM (inconclusive) | – | – | – | – |
| Cc1cc(=O)n2nc(N3CCCC(C(=O)N4CCc5ccccc54)C3)sc2n1 (configuration not stated) | – | 34.1 µM (active) | > 120 µM (not active) | 22.1 µM (active) | – |
| COC(=O)c1cn(-c2ccc(Cl)cc2)c(=O)c2ccccc12 | – | > 120 µM (not active) | > 60 µM (not active) | 16.2 µM (active) | – |
| COc1ccc(/C(O)=C/C2=NCCc3cc(OC)c(OC)cc32)cc1OC | – | 84.3 µM (active) | > 120 µM (not active) | > 120 µM (not active) | – |
| c1ccc(-c2nnc(CSc3ccc4c(c3)OCCO4)o2)cc1 | – | – | – | – | AC50 [8]: > 260 µM (inactive) |
| COC(=O)c1cc2ccsc2n1CC(=O)Nc1cc(Cl)ccc1OC | – | 10.9 µM (active) | > 120 µM (not active) | 18.8 µM (active) | – |
| O=C(CSc1nnc(CNC(=O)c2c(F)cccc2F)o1)NCc1ccccc1 | – | – | – | – | EC50 [9]: > 150 µM (not active); EC50 [10]: > 150 µM (not active); EC50 [11]: > 150 µM (not active) |
| COc1ccc(CNC(=O)C2CCN(c3nc(OC)nc(OC)n3)CC2)cc1 | – | > 120 µM (not active) | > 120 µM (not active) | > 120 µM (not active) | – |
| CC1CCc2c(sc3nc(C4CC4)nc(N4CCN(C(=O)c5ccco5)CC4)c23)C1 (configuration not stated) | – | – | – | – | EC50 [9]: 3.48 µM (active); AC50 [8]: 4.18 µM (active); EC50 [10]: 9.93 µM (active); EC50 [11]: 3.24 µM (active) |
| Cc1nnc(SCC2=C(C(=O)O)N3C(=O)C(NC(=O)c4cccc(F)c4F)C3SC2)s1 (configuration not stated) | – | – | – | – | EC50 [9]: 0.377 µM (active); EC50 [12]: 246 µM (active); EC50 [10]: 1.01 µM (active); EC50 [11]: > 150 µM (not active) |
| Clc1ccc(SCc2cc(Cl)nc(-c3ccccc3)n2)cc1 | – | – | – | – | EC50 [9]: > 150 µM (not active); EC50 [10]: > 150 µM (not active); EC50 [11]: 17 µM (active) |
| O=c1c(CCc2ccccc2)nc2cnc(N3CCNCC3)nc2n1-c1ccccc1 | 15.8 µM (inconclusive) | – | – | – | – |
| O=C(Nc1cc(Sc2ccccn2)cc([N+](=O)[O-])c1)c1ccc(Cl)cc1 | – | – | – | – | AC50 [8]: 5.46 µM (active) |
| OC(COCc1ccccc1)Cn1cnc2ccccc21 (configuration not stated) | 15.8 µM (inconclusive) | – | – | – | – |
| Cc1nc2ccccc2nc1-c1ccc(/N=[N+](\[O-])c2ccc(-c3nc4ccccc4nc3C)cc2)cc1 | 6.31 µM (inconclusive) | – | – | – | – |
| O=C(CNC(=O)c1ccc(F)cc1)N/N=C/c1cc(Br)ccc1OCc1ccccc1 | – | – | – | – | EC50 [9]: 10.3 µM (active); EC50 [10]: 32.6 µM (active); EC50 [11]: > 150 µM (not active) |
| O=C(NCCCn1ccnc1)c1ccc(-c2ccccc2)cc1 | – | – | – | – | AC50 [8]: 7.41 µM (active) |
| Cc1cc(-c2ccccc2)nnc1NCCN1CCOCC1 [MINAPRINE] | 10 µM (inconclusive) | – | – | – | AC50 [2]: 7.94 µM (inconclusive) |
| Clc1cc(I)cc(Cl)c1N=C1NCCN1 [PI-CLONIDINE] | 15.8 µM (inconclusive) | – | – | – | – |

Reference: ChEMBL document CHEMBL1201862, “PubChem BioAssay data set” (2004)
